Experimental findings from patent US8541380B2, “C-aryl glucoside SGLT2 inhibitors and pharmaceutical compositions comprising same” (Green Cross Corporation, priority 2009, dated 2013) are described below.

SMILES strings stand for the structures.

Sequence of human SGLT2 (P31639 whole entry): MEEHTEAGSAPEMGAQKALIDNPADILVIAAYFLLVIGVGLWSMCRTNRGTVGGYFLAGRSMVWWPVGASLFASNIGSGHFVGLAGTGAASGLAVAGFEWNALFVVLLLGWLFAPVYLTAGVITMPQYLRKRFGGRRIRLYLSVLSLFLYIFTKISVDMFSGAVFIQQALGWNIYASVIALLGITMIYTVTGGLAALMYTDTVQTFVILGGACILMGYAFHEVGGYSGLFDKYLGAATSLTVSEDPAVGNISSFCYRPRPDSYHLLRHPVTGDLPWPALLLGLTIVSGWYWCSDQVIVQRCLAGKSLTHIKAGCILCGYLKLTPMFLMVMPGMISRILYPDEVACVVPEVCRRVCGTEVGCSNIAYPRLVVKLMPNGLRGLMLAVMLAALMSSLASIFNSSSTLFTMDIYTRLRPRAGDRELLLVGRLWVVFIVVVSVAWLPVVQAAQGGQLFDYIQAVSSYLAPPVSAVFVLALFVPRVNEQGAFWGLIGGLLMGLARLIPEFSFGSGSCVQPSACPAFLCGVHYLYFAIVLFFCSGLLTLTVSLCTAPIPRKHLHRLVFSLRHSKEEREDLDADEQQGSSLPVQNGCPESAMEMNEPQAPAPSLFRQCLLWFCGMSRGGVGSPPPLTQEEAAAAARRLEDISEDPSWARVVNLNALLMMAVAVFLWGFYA

This test deals with human SGLT2 (Homo sapiens (Human), UniProt P31639). The test can be described thus: hSGLT2 inhibitory activity, sodium-dependent 14C-AMG glucose transport assay in CHO cells expressing hSGLT2. As to conditions: 14C-AMG uptake, CHO cells expressing hSGLT2, 37° C. for 2 h. It is filed as cell-based. An excerpt:
Human SGLT2 (hSGLT2) gene was amplified by PCR from cDNA-Human Adult Normal Tissue Kidney (Invitrogen, Carlsbad, Calif.). The hSGLT2 sequence was cloned into pcDNA3.1(+) for mammalian expression and were stably transfected into Chinese hamster ovary (CHO) cells. SGLT2-expressing clones were selected based on resistance to G418 antibiotic (Geneticin®, Invitrogen, Carlsbad, Calif.) and activity in the ^14C-α-methyl-D-glucopyranoside (^14C-AMG) uptake assay.
For sodium-dependent glucose transport assay, cells expressing hSGLT2 were seeded into a 96-well culture plate at a density of 5×10^4 cells/well in RPMI medium 1640 containing 10% fetal bovine serum. The cells were used 1 day after plating. They were incubated in pretreatment buffer (10 mM HEPES, 5 mM Tris, 140 mM choline chloride, 2 mM KCl, 1 mM CaCl2, and 1 mM MgCl2, pH 7.4) at 37° C. for 10 min. They were then incubated in uptake buffer (10 mM HEPES, 5 mM Tris, 140 mM NaCl, 2 mM KCl, 1 mM CaCl2, 1 mM MgCl2, and 1 mM ^14C-nonlabeled AMG pH 7.4) containing ^14C-labeled (8 uM) and inhibitor or dimethyl sulfoxide (DMSO) vehicle at 37° C. for 2 h. Cells were washed twice with washing buffer (pretreatment buffer containing 10 mM AMG at room temperature) and then the radioactivity was measured using a liquid scintillation counter.
Usually IC50 stands for the midpoint of a concentration-inhibition curve. The compound `Cc1ccc2nc(Cc3cc([C@@H]4O[C@H](CO)[C@@H](O)[C@H](O)[C@H]4O)ccc3Cl)nnc2c1` [Example 87, (2S,3R,4R,5S,6R)-2-(4-Chloro-3-((7-methylbenzo[e][1,2,4]triazin-3-yl)methyl)phenyl)-6-(hydroxymethyl)tetrahydro-2H-pyran-3,4,5-triol] came in with an IC50 of 0.532 µM.
As for `OC[C@H]1O[C@@H](c2ccc(Cl)c(Cc3nnc(-c4ccco4)s3)c2)[C@H](O)[C@@H](O)[C@@H]1O` [Example 1, (2S,3R,4R,5S,6R)-2-(4-Chloro-3-((5-(furan-2-yl)-1,3,4-thiadiazol-2-yl)methyl)phenyl)-6-(hydroxymethyl)-tetrahydro-2H-pyran-3,4,5-triol], the figure is 0.00703 µM; as for `CCCCCCCc1nnc(Cc2cc([C@@H]3O[C@H](CO)[C@@H](O)[C@H](O)[C@H]3O)ccc2Cl)s1` [Example 34, (2S,3R,4R,5S,6R)-2-(4-Chloro-3-((5-heptyl-1,3,4-thiadiazol-2-yl)methyl)phenyl)-6-(hydroxymethyl)-tetrahydro-2H-pyran-3,4,5-triol], 0.122 µM; as for `Cc1ccc(-c2nnc(Cc3cc([C@@H]4O[C@H](CO)[C@@H](O)[C@H](O)[C@H]4O)ccc3Cl)s2)o1` [Example 2, (2S,3R,4R,5S,6R)-2-(4-Chloro-3-((5-(5-methylfuran-2-yl)-1,3,4-thiadiazol-2-yl)methyl)phenyl)-6-(hydroxymethyl)-tetrahydro-2H-pyran-3,4,5-triol], 0.0583 µM.
`OC[C@H]1O[C@@H](c2ccc(Cl)c(Cc3nnc(-c4cccs4)s3)c2)[C@H](O)[C@@H](O)[C@@H]1O` [Example 5, (2S,3R,4R,5S,6R)-2-(4-Chloro-3-((5-(thiophen-2-yl)-1,3,4-thiadiazol-2-yl)methyl)phenyl)-6-(hydroxymethyl)tetrahydro-2H-pyran-3,4,5-triol]: inhibition was half-maximal at 0.0144 µM (IC50).
With `COc1cc(Cl)c(Cc2nnc(-c3ccco3)s2)cc1[C@@H]1O[C@H](CO)[C@@H](O)[C@H](O)[C@H]1O` [Example 97, (2S,3R,4R,5S,6R)-2-(4-Chloro-5-((5-(furan-2-yl)-1,3,4-thiadiazol-2-yl)methyl)-2-methoxyphenyl)-6-(hydroxymethyl)-tetrahydro-2H-pyran-3,4,5-triol], inhibition was half-maximal at 0.00555 µM (IC50).
As for `OC[C@H]1OC(c2ccc(Cl)c(Cc3nnc(-c4cccnc4)s3)c2)[C@H](O)[C@@H](O)[C@@H]1O` (stereo partly drawn) [Example 21, (3R,4R,5S,6R)-2-(4-Chloro-3-((5-(pyridin-3-yl)-1,3,4-thiadiazol-2-yl)methyl)phenyl)-6-(hydroxymethyl)-tetrahydro-2H-pyran-3,4,5-triol], the figure is 0.0453 µM; as for `Cn1cccc1-c1nnc(Cc2cc([C@@H]3O[C@H](CO)[C@@H](O)[C@H](O)[C@H]3O)ccc2Cl)s1` [Example 11, (2S,3R,4R,5S,6R)-2-(4-Chloro-3-((5-(1-methyl-1H-pyrrol-2-yl)-1,3,4-thiadiazol-2-yl)methyl)phenyl)-6-(hydroxymethyl)-tetrahydro-2H-pyran-3,4,5-triol], 0.119 µM.
Compound `OC[C@H]1O[C@@H](c2ccc(Cl)c(Cc3nnc(-c4sccc4Cl)s3)c2)[C@H](O)[C@@H](O)[C@@H]1O` [Example 9, (2S,3R,4R,5S,6R)-2-(4-Chloro-3-((5-(3-chlorothiophen-2-yl)-1,3,4-thiadiazol-2-yl)methyl)phenyl)-6-(hydroxymethyl)tetrahydro-2H-pyran-3,4,5-triol] yielded a 50% inhibitory concentration (IC50) of 0.712 µM. Compared with the last compound, the IC50 is about 6-fold higher.
The compound `OC[C@H]1O[C@@H](c2ccc(Cl)c(Cc3nnc(-c4ccccn4)s3)c2)[C@H](O)[C@@H](O)[C@@H]1O` [Example 15, (2S,3R,4R,5S,6R)-2-(4-Chloro-3-((5-(pyridin-2-yl)-1,3,4-thiadiazol-2-yl)methyl)phenyl)-6-(hydroxymethyl)tetrahydro-2H-pyran-3,4,5-triol] displayed an IC50 of 0.0303 µM.
With `OC[C@H]1O[C@@H](c2cc(Cc3nnc(-c4ccco4)s3)c(Cl)cc2Cl)[C@H](O)[C@@H](O)[C@@H]1O` [Example 96, (2S,3R,4R,5S,6R)-2-(2,4-Dichloro-5-((5-(furan-2-yl)-1,3,4-thiadiazol-2-yl)methyl)phenyl)-6-(hydroxymethyl)-tetrahydro-2H-pyran-3,4,5-triol], half-maximal inhibition (IC50) required 0.0176 µM.
As for `Cc1ccoc1-c1nnc(Cc2cc([C@@H]3O[C@H](CO)[C@@H](O)[C@H](O)[C@H]3O)ccc2Cl)s1` [Example 3, (2S,3R,4R,5S,6R)-2-(4-Chloro-3-((5-(3-methylfuran-2-yl)-1,3,4-thiadiazol-2-yl)methyl)phenyl)-6-(hydroxymethyl)-tetrahydro-2H-pyran-3,4,5-triol], the figure is 0.106 µM; as for `OC[C@H]1O[C@@H](c2ccc(Cl)c(Cc3nnc(-c4cc5ccccc5cn4)s3)c2)[C@H](O)[C@@H](O)[C@@H]1O` [Example 18, (2S,3R,4R,5S,6R)-2-(4-Chloro-3-((5-(isoquinolin-3-yl)-1,3,4-thiadiazol-2-yl)methyl)phenyl)-6-(hydroxymethyl)-tetrahydro-2H-pyran-3,4,5-triol], 0.0816 µM.
With `CC1CCC(Cc2nnc(Cc3cc(C4O[C@H](CO)[C@@H](O)[C@H](O)[C@H]4O)ccc3Cl)s2)CC1` (stereo partly drawn) [Example 25, (3R,4R,5S,6R)-2-(4-Chloro-3-((5-((4-methylcyclohexyl)methyl)-1,3,4-thiadiazol-2-yl)methyl)phenyl)-6-(hydroxymethyl)-tetrahydro-2H-pyran-3,4,5-triol], inhibition was half-maximal at 0.46 µM (IC50).
The compound `OC[C@H]1O[C@@H](c2ccc(Cl)c(Cc3nnc(-c4ccsc4)s3)c2)[C@H](O)[C@@H](O)[C@@H]1O` [Example 10, (2S,3R,4R,5S,6R)-2-(4-Chloro-3-((5-(thiophen-3-yl)-1,3,4-thiadiazol-2-yl)methyl)phenyl)-6-(hydroxymethyl)tetrahydro-2H-pyran-3,4,5-triol] returned an IC50 of 0.00351 µM.
In turn, `Cc1cc(Cc2cc([C@@H]3O[C@H](CO)[C@@H](O)[C@H](O)[C@H]3O)ccc2Cl)n[nH]c1=O` [Example 83, 6-(2-Chloro-5-((2S,3R,4R,5S,6R)-3,4,5-trihydroxy-6-(hydroxymethyl)-tetrahydro-2H-pyran-2-yl)benzyl)-4-methylpyridazin-3(2H)-one] yielded a concentration for half-maximal inhibition (IC50) of 0.618 µM.
Consider `CCCc1ccc(-c2nnc(Cc3cc(C4O[C@H](CO)[C@@H](O)[C@H](O)[C@H]4O)ccc3Cl)s2)cc1` (stereo partly drawn) [Example 23, (3R,4R,5S,6R)-2-(4-Chloro-3-((5-(4-propylphenyl)-1,3,4-thiadiazol-2-yl)methyl)phenyl)-6-(hydroxymethyl)-tetrahydro-2H-pyran-3,4,5-triol], for which the IC50 came out at 0.0249 µM. This IC50 lies about 25-fold lower than the previous one.
As to `OC[C@H]1O[C@@H](c2ccc(Cl)c(Cc3ccc(-c4ccoc4)nn3)c2)[C@H](O)[C@@H](O)[C@@H]1O` [Example 63, (2S,3R,4R,5S,6R)-2-(4-Chloro-3-((6-(furan-3-yl)pyridazin-3-yl)methyl)phenyl)-6-(hydroxymethyl)-tetrahydro-2H-pyran-3,4,5-triol], the IC50 came to 0.0613 µM.
To `CSc1nnc(Cc2cc([C@@H]3O[C@H](CO)[C@@H](O)[C@H](O)[C@H]3O)ccc2Cl)s1` [Example 40, (2S,3R,4R,5S,6R)-2-(4-Chloro-3-((5-(methylthio)-1,3,4-thiadiazol-2-yl)methyl)phenyl)-6-(hydroxymethyl)-tetrahydro-2H-pyran-3,4,5-triol] belongs 0.0109 µM.
Compound `OC[C@H]1OC(c2ccc(Cl)c(Cc3nnc(C4CCCCC4)s3)c2)[C@H](O)[C@@H](O)[C@@H]1O` (stereo partly drawn) [Example 24, (3R,4R,5S,6R)-2-(4-Chloro-3-((5-cyclohexyl-1,3,4-thiadiazol-2-yl)methyl)phenyl)-6-(hydroxymethyl)-tetrahydro-2H-pyran-3,4,5-triol] returned an IC50 of 0.542 µM.
In turn, `OC[C@H]1O[C@@H](c2ccc(Cl)c(Cc3nnc(-c4cscn4)s3)c2)[C@H](O)[C@@H](O)[C@@H]1O` [Example 13, (2S,3R,4R,5S,6R)-2-(4-Chloro-3-((5-(thiazol-4-yl)-1,3,4-thiadiazol-2-yl)methyl)phenyl)-6-(hydroxymethyl)tetrahydro-2H-pyran-3,4,5-triol] returned a concentration for half-maximal inhibition (IC50) of 0.0218 µM.
As for `Cc1ccc(-c2nnc(Cc3cc([C@@H]4O[C@H](CO)[C@@H](O)[C@H](O)[C@H]4O)ccc3Cl)s2)cn1` [Example 16, (2S,3R,4R,5S,6R)-2-(4-Chloro-3-((5-(6-methylpyridin-3-yl)-1,3,4-thiadiazol-2-yl)methyl)phenyl)-6-(hydroxymethyl)-tetrahydro-2H-pyran-3,4,5-triol], the figure is 0.0974 µM.
Consider `CCCCc1nnc(Cc2cc([C@@H]3O[C@H](CO)[C@@H](O)[C@H](O)[C@H]3O)ccc2Cl)s1` [Example 32, (2S,3R,4R,5S,6R)-2-(3-((5-Butyl-1,3,4-thiadiazol-2-yl)methyl)-4-chlorophenyl)-6-(hydroxymethyl)-tetrahydro-2H-pyran-3,4,5-triol], for which the IC50 was found to be 0.379 µM. This IC50 lies about 3.9-fold higher than the previous one.
The compound `Cc1ccsc1-c1nnc(Cc2cc([C@@H]3O[C@H](CO)[C@@H](O)[C@H](O)[C@H]3O)ccc2Cl)s1` [Example 7, (2S,3R,4R,5S,6R)-2-(4-chloro-3-((5-(3-methylthiophen-2-yl)-1,3,4-thiadiazol-2-yl)methyl)phenyl)-6-(hydroxymethyl)-tetrahydro-2H-pyran-3,4,5-triol] came in with an IC50 of 0.762 µM.
